Assay results from US4772586A, “Novel derivatives of arginine vasopressin antagonists” (Medical College of Ohio, priority 1986, dated 1988).
*1 amine or outer side, *2 acyl side, *3 side chain or, on linkers, in order; H or OH if unused. Where a SMILES comes first, the peptide text is derived from it. Bridges are numbered along the chain shown (N, C = ends). [ ]: non-standard residue; d: D form. X1 = O=C(CC1(S[*:2])CCCCC1)[*:1]

Key:
[1] = test system: vasopressor response to arginine vasopressin; experiment: Antagonism to the vasopressor response (Anti-VP); type: in vivo; settings: estimated in vivo pA2
Procedure, shortened: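 In vivo antagonism of arginine vasopressin pressor response per Dyckes et al. Effective dose (nmol/kg) is the antagonist dose making the response to 2x agonist units, injected 20 min later, equal that to 1x units. pA2 is the negative log of effective dose divided by 67 ml/kg distribution volume.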

[2] = test system: antidiuretic response to arginine vasopressin; experiment: Antagonism of the antidiuretic response to arginine vasopressin (Anti-ADH); type: in vivo, rats; settings: for Anti-ADH Potency pA2: estimated in vivo pA2
Procedure, shortened: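 Compounds were given intravenously to ethanol-anesthetized, water-loaded rats, followed by arginine vasopressin challenge. Effective dose (nmol/kg) is the antagonist dose that reduces the response to 2x units of agonist, given 20 min later, to the response to 1x units. pA2 is the negative log of effective dose divided by an estimated 67 ml/kg distribution volume.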

Compound	Anti-VP Potency pA2 ([1]; Table 2)	Anti-ADH Potency pA2 ([2]; Table 2)	other results
CC[C@H](C)[C@@H]1NC(=O)[C@H](Cc2ccccc2)NC(=O)[C@@H](Cc2ccccc2)NC(=O)CC2(CCCCC2)SSC[C@@H](C(=O)N2CCC[C@H]2C(=O)N[C@@H](CCCNC(=N)N)C(=O)N[C@@H](CCCNC(=N)N)C(N)=O)NC(=O)[C@H](CC(N)=O)NC1=O [Arg(NH2), [1-(beta-mercapto-beta,beta-cyclopentamethylenepropionic acid), 2-D-phenylalanine, 4-isoleucine, 9-argininamide]-arginine vasopressin] ([dF]FINCPRR-NH2; linker N-5 via X1)	8.11 ± 0.07	8.05 ± 0.11	
CC[C@H](C)[C@H](NC(=O)[C@H](CCCNC(=N)N)NC(=O)[C@@H]1CCCN1C(=O)[C@@H]1CSSC2(CCCCC2)CC(=O)N[C@H](Cc2ccccc2)C(=O)N[C@@H](Cc2ccccc2)C(=O)N[C@@H]([C@@H](C)CC)C(=O)N[C@@H](CC(N)=O)C(=O)N1)C(N)=O [Ile(NH2), [1-(beta-mercapto-beta,beta-cyclopentamethylenepropionic acid), 2-D-phenylalanine, 4-isoleucine, 9-isoleucinamide]-arginine vasopressin] ([dF]FINCPRI-NH2; linker N-5 via X1)	7.04 ± 0.05	7.58 ± 0.11	
CC[C@H](C)[C@@H]1NC(=O)[C@H](Cc2ccccc2)NC(=O)[C@@H](Cc2ccccc2)NC(=O)CC2(CCCCC2)SSC[C@@H](C(=O)N2CCC[C@H]2C(=O)N[C@@H](CCCNC(=N)N)C(=O)N[C@@H](C)C(N)=O)NC(=O)[C@H](CC(N)=O)NC1=O [Ala(NH2), [1-(beta-mercapto-beta,beta-cyclopentamethylenepropionic acid), 2-D-phenylalanine, 4-isoleucine, 9-alaninamide]-arginine vasopressin] ([dF]FINCPRA-NH2; linker N-5 via X1)	7.67 ± 0.04	8.38 ± 0.13	
CC[C@H](C)[C@@H]1NC(=O)[C@H](Cc2ccccc2)NC(=O)[C@@H](Cc2ccccc2)NC(=O)CC2(CCCCC2)SSC[C@@H](C(=O)N2CCC[C@H]2C(=O)N[C@@H](CCCNC(=N)N)C(N)=O)NC(=O)[C@H](CC(N)=O)NC1=O [desGly^9 d(CH2)5 [D-Phe^2,Ile^ 4]AVP, [1-(beta-mercapto-beta,beta-cyclopentamethylenepropionic acid), 2-D-phenylalanine, 4-isoleucine, 9-desglycine]-arginine vasopressin] ([dF]FINCPR-NH2; linker N-5 via X1)			Anti-VP pA2 ([1]; Table 1): 7.84 ± 0.03; Anti-ADH pA2 ([2]; Table 1, estimated in vivo pA2 = negative log of effective dose divided by volume of distribution (67 ml/kg)): 8.05 ± 0.09
CC[C@H](C)[C@@H]1NC(=O)[C@H](Cc2ccccc2)NC(=O)[C@@H](Cc2ccccc2)NC(=O)CC2(CCCCC2)SSC[C@@H](C(=O)N2CCC[C@H]2C(=O)N[C@@H](CCCNC(=N)N)C(=O)N[C@@H](Cc2ccc(O)cc2)C(N)=O)NC(=O)[C@H](CC(N)=O)NC1=O [Tyr(NH2), [1-(beta-mercapto-beta,beta-cyclopentamethylenepropionic acid), 2-D-phenylalanine, 4-isoleucine, 9-tyrosinamide]-arginine vasopressin] ([dF]FINCPRY-NH2; linker N-5 via X1)	7.27 ± 0.05	7.85 ± 0.06	
CNC(=O)[C@H](CCCNC(=N)N)NC(=O)[C@@H]1CCCN1C(=O)[C@@H]1CSSC2(CCCCC2)CC(=O)N[C@@H](Cc2ccc(OC)cc2)C(=O)N[C@@H](Cc2ccccc2)C(=O)N[C@@H](CCC(N)=O)C(=O)N[C@@H](CC(N)=O)C(=O)N1 [[1-(beta-mercapto-beta,beta-cyclopentamethylenepropionic acid), 2-(O-methyl)tyrosine, 8-arginine-N-methylamide, 9-desglycinamide] vasopressin] (Y(Me)FQNCPR-NHMe; linker N-5 via X1)			Anti-VP Potency pA2 ([1]; Table 4, ^+ = mixed): 8.73 ± 0.02; Anti-ADH Potency pA2 ([2]; Table 4): ~ 5.9
